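48-hour exposure; five concentrations; linearly interpolated endpoints. Abbreviation: GI50, concentration required for 50% inhibition of growth.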 Activity calls are given as the source filed them. No stated cut-off is given here; in the data, active = GI50 up to about 1.1 µM and inactive = higher.
Key:
Test in all cases: NCI-60 cell line screen, 48 h
SK-MEL-5 = test system: SK-MEL-5
COLO 205 = test system: COLO 205
SN12C = test system: SN12C
LOX IMVI = test system: LOX IMVI
SF-539 = test system: SF-539
NCI-H226 = test system: NCI-H226
K562 = test system: K562
SW-620 = test system: SW-620
HT-29 = test system: HT-29
NCI-H460 = test system: NCI-H460
SK-MEL-28 = test system: SK-MEL-28
EKVX = test system: EKVX
KM12 = test system: KM12
OVCAR-8 = test system: OVCAR-8
SK-OV-3 = test system: SK-OV-3
BT-549 = test system: BT-549
ACHN = test system: ACHN
Malme-3M = test system: Malme-3M
MCF7 = test system: MCF7
SK-MEL-2 = test system: SK-MEL-2

**Q.** What does the source list for `COC(=O)c1ccc(/C=C2\CCc3ccccc3C2=O)cc1`?
**A.** GI50 (SK-MEL-5): > 100 µM (inactive); GI50 (COLO 205): > 100 µM (inactive); GI50 (SN12C): > 100 µM (inactive); GI50 (LOX IMVI): > 100 µM (inactive); GI50 (SF-539): > 100 µM (inactive); GI50 (NCI-H226): > 100 µM (inactive); GI50 (K562): > 100 µM (inactive); GI50 (SW-620): > 100 µM (inactive); GI50 (HT-29): > 100 µM (inactive); GI50 (NCI-H460): > 100 µM (inactive); GI50 (SK-MEL-28): > 100 µM (inactive); GI50 (EKVX): > 100 µM (inactive); GI50 (KM12): > 100 µM (inactive); GI50 (OVCAR-8): > 100 µM (inactive); GI50 (SK-OV-3): > 100 µM (inactive); GI50 (BT-549): > 100 µM (inactive); GI50 (ACHN): > 100 µM (inactive); GI50 (Malme-3M): > 100 µM (inactive); GI50 (MCF7): > 100 µM (inactive)

**Q.** How did the GI50 (SK-MEL-2) turn out when `O=c1[nH]c(=O)n2n1C1C=CC2CC1` was run?
**A.** > 100 µM (inactive)

**Q.** What about the GI50 (SK-MEL-5) of the same compound?
**A.** > 100 µM (inactive)

**Q.** What about the GI50 (COLO 205) of the same compound?
**A.** > 100 µM (inactive)

**Q.** What about the GI50 (SN12C) of the same compound?
**A.** > 100 µM (inactive)

**Q.** What about the GI50 (LOX IMVI) of the same compound?
**A.** > 100 µM (inactive)

**Q.** And the GI50 (SF-539)?
**A.** > 100 µM (inactive)

**Q.** And the GI50 (NCI-H226)?
**A.** > 100 µM (inactive)

**Q.** And the GI50 (K562)?
**A.** > 100 µM (inactive)

**Q.** And the GI50 (SW-620)?
**A.** > 100 µM (inactive)

**Q.** What about the GI50 (HT-29) of the same compound?
**A.** > 100 µM (inactive)

**Q.** What about the GI50 (NCI-H460) of the same compound?
**A.** > 100 µM (inactive)

**Q.** And the GI50 (SK-MEL-28)?
**A.** > 100 µM (inactive)

**Q.** What about the GI50 (EKVX) of the same compound?
**A.** > 100 µM (inactive)

**Q.** And the GI50 (KM12)?
**A.** > 100 µM (inactive)

**Q.** What about the GI50 (OVCAR-8) of the same compound?
**A.** > 100 µM (inactive)

**Q.** And the GI50 (SK-OV-3)?
**A.** > 100 µM (inactive)

**Q.** And the GI50 (BT-549)?
**A.** > 100 µM (inactive)

**Q.** What about the GI50 (ACHN) of the same compound?
**A.** > 100 µM (inactive)

**Q.** What about the GI50 (MCF7) of the same compound?
**A.** > 100 µM (inactive)

**Q.** How did the GI50 (SK-MEL-2) turn out when `O=C(Nc1nncs1)NS(=O)(=O)n1cnc2ccccc21` was run?
**A.** > 100 µM (inactive)

**Q.** What about the GI50 (SK-MEL-5) of the same compound?
**A.** > 100 µM (inactive)

**Q.** And the GI50 (COLO 205)?
**A.** > 100 µM (inactive)

**Q.** What about the GI50 (SN12C) of the same compound?
**A.** > 100 µM (inactive)

**Q.** What about the GI50 (SF-539) of the same compound?
**A.** > 100 µM (inactive)

**Q.** What about the GI50 (NCI-H226) of the same compound?
**A.** > 100 µM (inactive)

**Q.** What about the GI50 (SW-620) of the same compound?
**A.** > 100 µM (inactive)

**Q.** What about the GI50 (HT-29) of the same compound?
**A.** > 100 µM (inactive)

**Q.** What about the GI50 (NCI-H460) of the same compound?
**A.** > 100 µM (inactive)

**Q.** What about the GI50 (SK-MEL-28) of the same compound?
**A.** > 100 µM (inactive)

**Q.** What about the GI50 (EKVX) of the same compound?
**A.** > 100 µM (inactive)

**Q.** What about the GI50 (KM12) of the same compound?
**A.** > 100 µM (inactive)

**Q.** What about the GI50 (OVCAR-8) of the same compound?
**A.** > 100 µM (inactive)

**Q.** What about the GI50 (SK-OV-3) of the same compound?
**A.** > 100 µM (inactive)

**Q.** What about the GI50 (BT-549) of the same compound?
**A.** > 100 µM (inactive)

**Q.** What about the GI50 (ACHN) of the same compound?
**A.** > 100 µM (inactive)

**Q.** What about the GI50 (Malme-3M) of the same compound?
**A.** > 100 µM (inactive)

**Q.** What about the GI50 (MCF7) of the same compound?
**A.** > 10 µM (inactive)

**Q.** How did the GI50 (SK-MEL-5) turn out when `S=C1Nc2cnc3ccccc3c2SC1c1ccccc1` (stereo unspecified) was run?
**A.** > 100 µM (inactive)

**Q.** And the GI50 (COLO 205)?
**A.** > 100 µM (inactive)

**Q.** What about the GI50 (SN12C) of the same compound?
**A.** > 100 µM (inactive)

**Q.** What about the GI50 (LOX IMVI) of the same compound?
**A.** 97.5 µM (inactive)

**Q.** And the GI50 (NCI-H226)?
**A.** > 100 µM (inactive)

**Q.** And the GI50 (K562)?
**A.** > 100 µM (inactive)

**Q.** And the GI50 (HT-29)?
**A.** > 100 µM (inactive)

**Q.** And the GI50 (NCI-H460)?
**A.** > 100 µM (inactive)

**Q.** And the GI50 (SK-MEL-28)?
**A.** 92.3 µM (inactive)

**Q.** And the GI50 (EKVX)?
**A.** > 100 µM (inactive)

**Q.** And the GI50 (KM12)?
**A.** > 100 µM (inactive)

**Q.** And the GI50 (OVCAR-8)?
**A.** > 100 µM (inactive)

**Q.** And the GI50 (SK-OV-3)?
**A.** 72.8 µM (inactive)

**Q.** And the GI50 (BT-549)?
**A.** > 100 µM (inactive)

**Q.** And the GI50 (ACHN)?
**A.** > 100 µM (inactive)

**Q.** And the GI50 (Malme-3M)?
**A.** > 100 µM (inactive)

**Q.** What about the GI50 (MCF7) of the same compound?
**A.** > 100 µM (inactive)

**Q.** Which results are given for `CCC12CCCN(Cc3ccccc3)C1c1c([nH]c3ccccc13)C(C(=O)OC)C2` (stereo unspecified)?
**A.** GI50 (SK-MEL-5): > 10 µM (inactive); GI50 (COLO 205): > 10 µM (inactive); GI50 (SN12C): > 10 µM (inactive); GI50 (LOX IMVI): > 10 µM (inactive); GI50 (SF-539): > 10 µM (inactive); GI50 (K562): > 10 µM (inactive); GI50 (SW-620): > 10 µM (inactive); GI50 (HT-29): 6.87 µM (inactive); GI50 (SK-MEL-28): > 10 µM (inactive); GI50 (KM12): > 10 µM (inactive); GI50 (OVCAR-8): > 10 µM (inactive); GI50 (SK-OV-3): > 10 µM (inactive); GI50 (BT-549): > 10 µM (inactive); GI50 (ACHN): > 10 µM (inactive); GI50 (Malme-3M): > 10 µM (inactive); GI50 (MCF7): > 10 µM (inactive)

**Q.** What does the source list for `CC(=O)O[C@H]1C(=O)[C@@]2(C)[C@H]([C@H](OC(=O)c3ccccc3)[C@]3(O)C[C@H](OC(=O)[C@H](O)[C@@H](NC(=O)c4ccoc4)c4ccccc4)C(C)=C1C3(C)C)[C@]1(OC(C)=O)CO[C@@H]1C[C@@H]2O`?
**A.** GI50 (SK-MEL-2): 0.0225 µM (active); GI50 (SK-MEL-5): 0.028 µM (active); GI50 (COLO 205): 0.026 µM (active); GI50 (SN12C): 0.0338 µM (active); GI50 (LOX IMVI): 0.0215 µM (active); GI50 (SF-539): 0.0292 µM (active); GI50 (NCI-H226): 0.0386 µM (active); GI50 (K562): 0.016 µM (active); GI50 (SW-620): 0.021 µM (active); GI50 (HT-29): < 0.01 µM (active); GI50 (NCI-H460): 0.023 µM (active); GI50 (SK-MEL-28): 0.0532 µM (active); GI50 (EKVX): 0.897 µM (active); GI50 (KM12): < 0.01 µM (active); GI50 (OVCAR-8): 0.067 µM (active); GI50 (SK-OV-3): 0.358 µM (active); GI50 (BT-549): < 0.01 µM (active); GI50 (ACHN): 0.37 µM (active); GI50 (MCF7): 0.0265 µM (active)

**Q.** Which GI50 (SK-MEL-2) does the source give for `C/C1=C/C[C@@H](/C(C)=C/c2csc(C)n2)OC(=O)C[C@H](O)C(C)(C)C(=O)[C@H](C)[C@@H](O)[C@@H](C)CCC1` [EPOTHILONE D] here?
**A.** < 0.0001 µM (active)

**Q.** What about the GI50 (SK-MEL-5) of the same compound?
**A.** < 0.0001 µM (active)

**Q.** And the GI50 (COLO 205)?
**A.** < 0.0001 µM (active)

**Q.** And the GI50 (SN12C)?
**A.** < 0.0001 µM (active)

**Q.** And the GI50 (LOX IMVI)?
**A.** < 0.0001 µM (active)

**Q.** What about the GI50 (SF-539) of the same compound?
**A.** < 0.0001 µM (active)

**Q.** What about the GI50 (NCI-H226) of the same compound?
**A.** < 0.0001 µM (active)

**Q.** What about the GI50 (K562) of the same compound?
**A.** < 0.0001 µM (active)

**Q.** What about the GI50 (SW-620) of the same compound?
**A.** < 0.0001 µM (active)

**Q.** And the GI50 (HT-29)?
**A.** < 0.0001 µM (active)

**Q.** What about the GI50 (NCI-H460) of the same compound?
**A.** < 0.0001 µM (active)

**Q.** What about the GI50 (EKVX) of the same compound?
**A.** < 0.0001 µM (active)

**Q.** And the GI50 (KM12)?
**A.** < 0.0001 µM (active)

**Q.** What about the GI50 (OVCAR-8) of the same compound?
**A.** < 0.0001 µM (active)

**Q.** What about the GI50 (SK-OV-3) of the same compound?
**A.** < 0.0001 µM (active)

**Q.** And the GI50 (BT-549)?
**A.** < 0.0001 µM (active)

**Q.** And the GI50 (ACHN)?
**A.** < 0.0001 µM (active)

**Q.** And the GI50 (MCF7)?
**A.** < 0.0001 µM (active)

Source: ChEMBL document CHEMBL1201862, “PubChem BioAssay data set” (2004)
